# Laboratory results as given in US20230279025A1, “KRAS G12D INHIBITORS” (Mirati Therapeutics, Inc., priority 2020, published 2023).
# Counter-ions that a name gives are not always drawn.
# Target: KRas G12D (Homo sapiens (Human), UniProt P01116, G12D)
# Assay: KRas G12D Binding Assay (TR-FRET displacement of Cy5 labelled tracer)
# Details: GDP-loaded KRAS G12D (amino acids 1:169), 60 minute incubation at 22° C.
# Description: After a 60 minute incubation at 22° C., the reaction was measured using a PerkinElmer EnVision multimode plate reader via TR-FRET dual wavelength detection, and the percent of control (POC) calculated using a ratiometric emission factor. […] The POC values were fit to a 4-parameter logistic curve and the IC50 value was determined as the concentration where the curve crosses 50 POC.
# ND stands for “not determined.”
# Chain of KRas G12D (P01116 other isoform, or with tags, fused parts or gaps G12D): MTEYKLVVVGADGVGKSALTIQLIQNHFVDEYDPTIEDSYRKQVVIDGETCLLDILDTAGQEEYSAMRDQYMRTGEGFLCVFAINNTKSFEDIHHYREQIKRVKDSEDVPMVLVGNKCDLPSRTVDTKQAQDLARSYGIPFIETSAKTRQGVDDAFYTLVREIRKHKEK
row,Compound,IC50
1,"Fc1c(-c2cccc3ccccc23)ncc2c(N3C[C@H]4CC[C@@H](C3)N4)nc(OCC34CCCN3CCC4)nc12 [Example 186, 4-((1R,5S)-3,8-diazabicyclo[3.2.1]octan-3-yl)-8-fluoro-7-(naphthalen-1-yl)-2-((tetrahydro-1H-pyrrolizin-7a(5H)-yl)methoxy)pyrido[4,3-d]pyrimidine]",29.2 nM
2,"C[C@H]1CN2CCC[C@@]2(COc2nc(N3CC4CCC(C3)N4)c3cnc(-c4cccc5cccc(Cl)c45)c(F)c3n2)C1 (stereo in doubt) [Example 227, 4-((1R,5S)-3,8-diazabicyclo[3.2.1]octan-3-yl)-7-(8-chloronaphthalen-1-yl)-8-fluoro-2-((2-methyltetrahydro-1H-pyrrolizin-7a(5H)-yl)methoxy)pyrido[4,3-d]pyrimidine bis-hydrochloride]",6.4 nM
3,"Oc1cccc(-c2ncc3c(N4C[C@H]5CC[C@@H](C4)N5)nc(OCC45CCCN4CCC5)nc3c2F)c1 [Example 271, 3-(4-((1R,5S)-3,8-diazabicyclo[3.2.1]octan-3-yl)-8-fluoro-2-((hexahydro-1H-pyrrolizin-7a-yl)methoxy)pyrido[4,3-d]pyrimidin-7-yl)phenol]",1620 nM
4,"CN(C)C(=O)OC[C@H]1CC[C@@]2(COc3nc(N4CC5CCC(C4)N5)c4cnc(-c5cccc6cccc(Cl)c56)c(F)c4n3)CCCN12 [Example 405, (7a-(((4-(3,8-diazabicyclo[3.2.1]octan-3-yl)-7-(8-chloronaphthalen-1l-yl)-8-fluoropyrido[4,3-d]pyrimidin-2-yl)oxy)methyl)hexahydro-1H-pyrrolizin-3-yl)methyl dimethylcarbamate]",2.2 nM
5,"Fc1ccc2cccc(-c3ncc4c(N5C[C@H]6CC[C@@H](C5)N6)nc(OCC56CCCN5CCC6)nc4c3F)c2c1F [Example 464, 4-((1R,5S)-3,8-diazabicyclo[3.2.1]octan-3-yl)-7-(7,8-difluoronaphthalen-1-yl)-8-fluoro-2-((hexahydro-1H-pyrrolizin-7a-yl)methoxy)pyrido[4,3-d]pyrimidine]",0.007 nM
6,"N=C(N)NCCOc1nc(N2CC3CCC(C2)N3)c2cnc(-c3cccc4cccc(Cl)c34)c(F)c2n1 [Example 176, 1-[2-[7-(8-chloro-1-naphthyl)-4-(3,8-diazabicyclo[3.2.1]octan-3-yl)-8-fluoro-pyrido[4,3-d]pyrimidin-2-yl]oxyethyl]guanidine]",235 nM
7,"OCCc1ccccc1-c1ncc2c(N3C[C@H]4CC[C@@H](C3)N4)nc(OCC34CCCN3CCC4)nc2c1F [Example 315, 2-(2-(4-((1R,5S)-3,8-diazabicyclo[3.2.1]octan-3-yl)-8-fluoro-2-((hexahydro-1H-pyrrolizin-7a-yl)methoxy)pyrido[4,3-d]pyrimidin-7-yl)phenyl)ethanol]",2540 nM
8,"CC1(N)CN(c2nc(N3C[C@H]4CC[C@@H](C3)N4)c3cnc(-c4cccc5cccc(Cl)c45)c(F)c3n2)C1 [Example 125, 1-(4-((1R,5S)-3,8-diazabicyclo[3.2.1]octan-3-yl)-7-(8-chloronaphthalen-1-yl)-8-fluoropyrido[4,3-d]pyrimidin-2-yl)-3-methylazetidin-3-amine]",668 nM
9,"Oc1cc(-c2ncc3c(N4CC5CCC(C4)N5)nc(OCC45CCCN4C[C@H](F)C5)nc3c2F)c2c(Cl)cccc2c1 (mixture of isomers) [Example 330, 4-(4-((1R,5S)-3,8-diazabicyclo[3.2.1]octan-3-yl)-8-fluoro-2-((2-fluorotetrahydro-1H-pyrrolizin-7a(5H)-yl)methoxy)pyrido[4,3-d]pyrimidin-7-yl)-5-chloronaphthalen-2-ol (racemic, trans)]",2.5 nM
10,"Fc1ccc2cccc(-c3ncc4c(N5C[C@H]6CC[C@@H](C5)N6)nc(OCC56CCCN5CCC6)nc4c3F)c2c1Cl [Example 98, 4-((1R,5S)-3,8-diazabicyclo[3.2.1]octan-3-yl)-7-(8-chloro-7-fluoronaphthalen-1-yl)-8-fluoro-2-((tetrahydro-1H-pyrrolizin-7a(5H)-yl)methoxy)pyrido[4,3-d]pyrimidine bis(2,2,2-trifluoroacetate)]",1 nM
11,"Fc1c(-c2cccc3cccc(CC(F)F)c23)ncc2c(N3C[C@H]4CC[C@@H](C3)N4)nc(OCC34CCCN3CCC4)nc12 [Example 247, 4-((1R,5S)-3,8-diazabicyclo[3.2.1]octan-3-yl)-7-(8-(2,2-difluoroethyl)naphthalen-1-yl)-8-fluoro-2-((hexahydro-1H-pyrrolizin-7a-yl)methoxy)pyrido[4,3-d]pyrimidine]",12.6 nM
12,"CC1CCc2cccc(-c3ncc4c(N5CC6CCC(C5)N6)nc(OC[C@@]56CCCN5C[C@H](F)C6)nc4c3F)c21 (stereo partly drawn) [Example 429, 4-(3,8-diazabicyclo[3.2.1]octan-3-yl)-8-fluoro-2-(((2R,7aS)-2-fluorotetrahydro-1H-pyrrolizin-7a(5H)-yl)methoxy)-7-(3-methyl-2,3-dihydro-1H-inden-4-yl)pyrido[4,3-d]pyrimidine]",18.5 nM
13,"COc1c(Cl)cccc1-c1ncc2c(N3C[C@H]4CC[C@@H](C3)N4)nc(OCC34CCCN3CCC4)nc2c1F [Example 311, 4-((1R,5S)-3,8-diazabicyclo[3.2.1]octan-3-yl)-7-(3-chloro-2-methoxyphenyl)-8-fluoro-2-((hexahydro-1H-pyrrolizin-7a-yl)methoxy)pyrido[4,3-d]pyrimidine]",135 nM
14,"CN1CCc2cccc(Oc3nc(N4C[C@H]5CC[C@@H](C4)N5)c4cnc(-c5cccc6cccc(Cl)c56)c(F)c4n3)c2C1 [Example 378, 4-((1R,5S)-3,8-diazabicyclo[3.2.1]octan-3-yl)-7-(8-chloronaphthalen-1-yl)-8-fluoro-2-((2-methyl-1,2,3,4-tetrahydroisoquinolin-8-yl)oxy)pyrido[4,3-d]pyrimidine]",6250 nM
15,"Fc1c(-c2cccc(Cl)c2C(F)(F)F)ncc2c(N3C[C@H]4CC[C@@H](C3)N4)nc(OCC34CCCN3CCC4)nc12 [Example 328, 4-((1R,5S)-3,8-diazabicyclo[3.2.1]octan-3-yl)-7-(3-chloro-2-(trifluoromethyl)phenyl)-8-fluoro-2-((tetrahydro-1H-pyrrolizin-7a(5H)-yl)methoxy)pyrido[4,3-d]pyrimidine]",9.4 nM
16,"Fc1c(-c2cccc(Cl)c2C2CC2)ncc2c(N3CC4CCC(C3)N4)nc(OCC34CCCN3C[C@H](F)C4)nc12 (mixture of isomers) [Example 342, 4-((1R,5S)-3,8-diazabicyclo[3.2.1]octan-3-yl)-7-(3-chloro-2-cyclopropylphenyl)-8-fluoro-2-((2-fluorotetrahydro-1H-pyrrolizin-7a(5H)-yl)methoxy)pyrido[4,3-d]pyrimidine (racemic, trans)]",3.4 nM
17,"c1ccc2c(-c3cc4nc(OCC56CCCN5CCC6)nc(N5C[C@H]6CC[C@@H](C5)N6)c4cn3)cccc2c1 [Example 233, 4-((1R,5S)-3,8-diazabicyclo[3.2.1]octan-3-yl)-7-(naphthalen-1-yl)-2-((tetrahydro-1H-pyrrolizin-7a(5H)-yl)methoxy)pyrido[4,3-d]pyrimidine]",387 nM
18,"CC(C)c1ccc(O)cc1-c1ncc2c(N3CC4CCC(C3)N4)nc(OC[C@@]34CCCN3C[C@H](F)C4)nc2c1F (stereo in doubt) [Example 399, 3-(4-((1R,5S)-3,8-diazabicyclo[3.2.1]octan-3-yl)-8-fluoro-2-((2-fluorotetrahydro-1H-pyrrolizin-7a(5H)-yl)methoxy)pyrido[4,3-d]pyrimidin-7-yl)-4-isopropylphenol]",2.7 nM
19,"O=C1CCC2(COc3nc(N4C[C@H]5CC[C@@H](C4)N5)c4cnc(-c5cccc6cccc(Cl)c56)c(F)c4n3)CCCN12 (stereo partly drawn) [Example 83, 7a-(((4-((1R,5S)-3,8-diazabicyclo[3.2.1]octan-3-yl)-7-(8-chloronaphthalen-1-yl)-8-fluoropyrido[4,3-d]pyrimidin-2-yl)oxy)methyl)hexahydro-3H-pyrrolizin-3-one bis(2,2,2-trifluoroacetate)]",8690 nM
20,"OCC#Cc1cccc2cccc(-c3ncc4c(N5C[C@H]6CC[C@@H](C5)N6)nc(OCC56CCCN5CCC6)nc4c3F)c12 [Example 193, 3-(8-(4-((1R,5S)-3,8-diazabicyclo[3.2.1]octan-3-yl)-8-fluoro-2-((tetrahydro-1H-pyrrolizin-7a(5H)-yl)methoxy)pyrido[4,3-d]pyrimidin-7-yl)naphthalen-1-yl)prop-2-yn-1-ol]",12.5 nM
21,"Fc1c(-c2cccc3cccc(F)c23)ncc2c(N3C[C@H]4CC[C@@H](C3)N4)nc(OCC34CCCN3CCC4)nc12 [Example 234, 4-((1R,5S)-3,8-diazabicyclo[3.2.1]octan-3-yl)-8-fluoro-7-(8-fluoronaphthalen-1-yl)-2-((tetrahydro-1H-pyrrolizin-7a(5H)-yl)methoxy)pyrido[4,3-d]pyrimidine]",5.9 nM
22,"CN(C)c1nc(N2CC3CCC(C2)N3)c2cnc(-c3cc(O)cc4ccccc34)c(F)c2n1 [Example 184, 4-[4-(3,8-diazabicyclo[3.2.1]octan-3-yl)-2-(dimethylamino)-8-fluoro-pyrido[4,3-d]pyrimidin-7-yl]naphthalen-2-ol]",1990 nM
23,"Fc1c(-c2cccc3cccc(Cl)c23)ncc2c(N3C[C@H]4CC[C@@H](C3)N4)nc(OCC34CCCN3CC(F)(F)C4)nc12 (stereo partly drawn) [Example 93, 4-((1R,5S)-3,8-diazabicyclo[3.2.1]octan-3-yl)-7-(8-chloronaphthalen-1-yl)-2-((2,2-difluorotetrahydro-1H-pyrrolizin-7a(5H)-yl)methoxy)-8-fluoropyrido[4,3-d]pyrimidine bis(2,2,2-trifluoroacetate)]",105 nM
24,"Cc1nccn1CCOc1nc(N2C[C@H]3C[C@@H](O)[C@@H](C2)N3)c2cnc(-c3cccc4cccc(Cl)c34)c(F)c2n1 [Example 167, (1R,5R,6R)-3-(7-(8-chloronaphthalen-1-yl)-8-fluoro-2-(2-(2-methyl-1H-imidazol-1-yl)ethoxy)pyrido[4,3-d]pyrimidin-4-yl)-3,8-diazabicyclo[3.2.1]octan-6-ol]",226 nM
